Test results as given in patent US20170055529A1, “BROAD SPECTRUM WEED CONTROL IN FLOODED RICE BY IN-WATER APPLICATION OF AUXIN HERBICIDES” (priority 2015, published 2017).

Legend:
Type in all cases: in vivo
[1] = test system: CYDPI = Cyperus difformis (small-flower flatsedge); test: Greenhouse in-water herbicidal activity (small pots)
Text: (§1) Weed seeds of the desired test plant species were planted in puddled soil (mud) prepared by mixing a non-sterilized mineral soil (approximately 50 percent silt, 26 percent clay, and 24 percent sand, with a pH of about 7.6 and an organic matter content of about 2.9 percent) and water at a 1:1 volumetric ratio. The prepared mud was dispensed in 365 milliliter (mL) aliquots into 16-ounce (oz.) non-perforated plastic pots with a surface area of 86.59 square centimeters (cm^2) leaving a headspace of 3 centimeters (cm) in each pot. Mud was allowed to dry overnight prior to planting or transplanting. Rice seeds were planted in Sun Gro® MetroMix® 360 planting mixture, which typically has a pH of 6.0 to 6.8 and an organic matter content of about 30 percent, in plastic plug trays. Seedlings at the second or third leaf stage of growth were transplanted into 840 mL of mud contained in 32-oz. non-perforated plastic pots with a surface area of 86.59 cm^2 four days prior to herbicide application. The paddy was created by filling the headspace of the pots with 2.5 to 3 cm of water. When required to ensure good germination and healthy plants, a fungicide treatment and/or other chemical or physical treatment was applied. The plants were grown for 4-22 days (d) in a greenhouse with an approximate 14-hour (h) photoperiod which was maintained at about 29° C. during the day and 26° C. during the night. Nutrients were added as Osmocote® (19:6:12, Nitrogen:Phosphorus:Potassium (N:P:K)+minor nutrients) at 2 g per 16 oz. pot and 4 g per 32 oz. pot. Water was added on a regular basis to maintain the paddy flood, and supplemental lighting was provided with overhead metal halide 1000-Watt lamps as necessary. The plants were used for testing when they reached the second or third true leaf stage.
(§2) Triclopyr triethylammonium (as Grandstand® R, 359.5 grams acid equivalent per liter (g ae/L)); fluroxypyr methylheptyl ester (meptyl or MHE, as Starane™, 179.8 g ae/L); 2,4-dichlorophenoxyacetic acid dimethylammonium (2,4-D DMA, as Weedar® 64, 455.4 g ae/L); and penoxsulam (as Grasp® SC, 239.7 grams active ingredient per liter (g ai/L) were used. Measured amounts of formulated compounds were placed in individual 120 mL glass vials and were dissolved in 40 mL of an aqueous mixture containing 1.25% volume per volume (v/v) Agri-Dex® crop oil concentrate. Generally, multiple concentrations were tested utilizing the same stock solution. Applications were made by injecting an appropriate amount of the application solution into the aqueous layer of the paddy. Control plants were treated in the same manner with the solvent blank.
(§3) The treated plants and control plants were placed in a greenhouse as described above and water was added as needed to maintain a paddy flood. After approximately 3 weeks the condition of the test plants, compared with that of the untreated plants, was determined visually and scored on a scale of 0 to 100 percent where 0 corresponds to no injury or growth reduction and 100 corresponds to complete kill.

[2] = test system: ECHCG = Echinochloa crus-galli (barnyardgrass); test: as above
Text: as §1, §2, §3

[3] = test system: MOOVA = Monochoria vaginalis (monochoria); test: as above
Text: as §1, §2, §3

[4] = test system: SCPJU = Schoenoplectus juncoides (Japanese bulrush); test: as above
Text: as §1, §2, §3

[5] = test system: CYPDI = Cyperus difformis (small-flower flatsedge); test: Greenhouse in-water herbicidal activity (large pots); settings: for Percent (%) Visual Injury Ratings - 16 DAA, CYPDI / Percent (%) Visual Injury Ratings - 22 DAA, CYPDI: greenhouse large pots; for pest or weed control at 280 g/ha / pest or weed control at 560 g/ha / pest or weed control at 1120 g/ha: Cyperus difformis, 744 h, read-out: Percent (%) Visual Injury Ratings - 31 DAA, CYPDI
Experimental: (§4) Weed seeds or nutlets of the desired test plant species were planted in puddled soil (mud) prepared by mixing shredded topsoil and deionized (DI) water in a 1:1 ratio in a standard cement mixer. […] Osmocote® (17:6:10 N:P:K; 0.5 teaspoon) was added to the bottom of a container. The container is a high-density polyethylene (HDPE) round container (4.163 L (1.1 gallon), 15 cm high×20.55 cm diameter; for treatment purposes, the surface area is calculated as 331 cm^2 with 1 hectare equivalent to 10^8 cm^2). The mud mixture (2,750 mL) was added to the container filling it half full. Stakes were placed horizontally in each container to create separate areas for which to plant each different plant species. Water was added on a regular basis to maintain the paddy flood, and supplemental lighting was provided with overhead metal halide 1000-Watt lamps as necessary.
(§5) Once the plants had reached the proper size (the growth stage of the various species ranged from 2 to 4 leaves), the containers were flooded with city water to a depth of 3 cm submerging the plants 80-100%. The outside of each container was measured and marked at a 3-cm line with a black permanent marker to eliminate water level variability during the trial period. Water was added daily to maintain this water depth. Triclopyr triethylammonium (as Garlon® 3 A, 360 g ae/L); triclopyr butoxyethyl ester (as Garlon® 4, 480 g ae/L); fluroxypyr methylheptyl ester (meptyl or MHE, as Starane® Ultra, 333 g ae/L); fluroxypyr acid (850 grams acid equivalent per kilogram (g ae/kg)); 2,4-dichlorophenoxyacetic acid dimethylammonium (2,4-D DMA, as Weedar® 64 EC, 456 g ae/L); 2,4-dichlorophenoxyacetic acid 2-ethylhexyl ester (2,4-D 2-EHE, as Agri Star®, 456 g ae/L); clopyralid olamine (as Stinger®, 360 g ae/L); and penoxsulam (as Grasp® SC, 240 g ai/L) were used. Each herbicide treatment for each pot was mixed in water (80 mL) and applied directly into the paddy water at rates adjusted to the surface area. The dry formulations were pre-weighed based on the rate of the active ingredient to be applied on a per unit area basis, placed in 30 mL vials, and capped. Granules were spread onto the top of the water in each pot and dispersed throughout the water. Treatments were replicated 3 times.
(§6) The treated plants and control plants were placed in a greenhouse as described above and water was added as needed to maintain a flood depth of 3 cm. […]

[6] = test system: MOOVA = Monochoria vaginalis (monochoria); test: as above; settings: for Percent (%) Visual Injury Ratings - 16 DAA, MOOVA / Percent (%) Visual Injury Ratings - 22 DAA, MOOVA: greenhouse large pots; for pest or weed control at 280 g/ha / pest or weed control at 560 g/ha / pest or weed control at 1120 g/ha: Pontederia vaginalis, 744 h, read-out: Percent (%) Visual Injury Ratings - 31 DAA, MOOVA
Experimental: as §4, §5, §6

## CCCCCCC(C)OC(=O)COc1nc(F)c(Cl)c(N)c1Cl (centres unmarked) [Fluroxypyr-meptyl (Starane ® Ultra), 1-methylheptyl 2-[(4-amino-3,5-dichloro-6-fluoro-2-pyridinyl)oxy]acetate]
[1]; 280 g ae/ha in-water
  Percent (%) Visual Injury Ratings - 20 DAA, CYDPI: 100%
[1]; 560 g ae/ha in-water
  Percent (%) Visual Injury Ratings - 20 DAA, CYDPI: 100%
[1]; 1120 g ae/ha in-water
  Percent (%) Visual Injury Ratings - 20 DAA, CYDPI: 100%
[2]; 280 g ae/ha in-water
  Percent (%) Visual Injury Ratings - 20 DAA, ECHCG: 0%
[2]; 560 g ae/ha in-water
  Percent (%) Visual Injury Ratings - 20 DAA, ECHCG: 25%
[2]; 1120 g ae/ha in-water
  Percent (%) Visual Injury Ratings - 20 DAA, ECHCG: 99%
[3]; 280 g ae/ha in-water
  Percent (%) Visual Injury Ratings - 20 DAA, MOOVA: 85%
[3]; 560 g ae/ha in-water
  Percent (%) Visual Injury Ratings - 20 DAA, MOOVA: 100%
[3]; 1120 g ae/ha in-water
  Percent (%) Visual Injury Ratings - 20 DAA, MOOVA: 100%
[4]; 280 g ae/ha in-water
  Percent (%) Visual Injury Ratings - 20 DAA, SCPJU: 60%
[4]; 560 g ae/ha in-water
  Percent (%) Visual Injury Ratings - 20 DAA, SCPJU: 90%
[4]; 1120 g ae/ha in-water
  Percent (%) Visual Injury Ratings - 20 DAA, SCPJU: 100%
[5]; 35 g ae/ha
  Percent (%) Visual Injury Ratings - 16 DAA, CYPDI: 8%
  Percent (%) Visual Injury Ratings - 22 DAA, CYPDI: 28%
[5]; 70 g ae/ha
  Percent (%) Visual Injury Ratings - 16 DAA, CYPDI: 13%
  Percent (%) Visual Injury Ratings - 22 DAA, CYPDI: 28%
[5]; 140 g ae/ha
  Percent (%) Visual Injury Ratings - 16 DAA, CYPDI: 20%
  Percent (%) Visual Injury Ratings - 22 DAA, CYPDI: 79%
[5]; 280 g ae/ha
  Percent (%) Visual Injury Ratings - 16 DAA, CYPDI: 33%
  Percent (%) Visual Injury Ratings - 22 DAA, CYPDI: 89%
[5]
  pest or weed control at 280 g/ha: 100%
  pest or weed control at 560 g/ha: 100%
  pest or weed control at 1120 g/ha: 100%
[6]; 35 g ae/ha
  Percent (%) Visual Injury Ratings - 16 DAA, MOOVA: 27%
  Percent (%) Visual Injury Ratings - 22 DAA, MOOVA: 0%
[6]; 70 g ae/ha
  Percent (%) Visual Injury Ratings - 16 DAA, MOOVA: 27%
  Percent (%) Visual Injury Ratings - 22 DAA, MOOVA: 3%
[6]; 140 g ae/ha
  Percent (%) Visual Injury Ratings - 16 DAA, MOOVA: 13%
  Percent (%) Visual Injury Ratings - 22 DAA, MOOVA: 0%
[6]; 280 g ae/ha
  Percent (%) Visual Injury Ratings - 16 DAA, MOOVA: 5%
  Percent (%) Visual Injury Ratings - 22 DAA, MOOVA: 15%
[6]
  pest or weed control at 280 g/ha: 100%
  pest or weed control at 560 g/ha: 100%
  pest or weed control at 1120 g/ha: 100%

## O=C(O)COc1nc(Cl)c(Cl)cc1Cl [Triclopyr triethanolamine (Garlon ® 3A), triethylammonium 2[(3,5,6-trichloro-2-pyridinyl)oxy]acetate]
[1]; 280 g ae/ha in-water
  Percent (%) Visual Injury Ratings - 20 DAA, CYDPI: 100%
[1]; 560 g ae/ha in-water
  Percent (%) Visual Injury Ratings - 20 DAA, CYDPI: 100%
[1]; 1120 g ae/ha in-water
  Percent (%) Visual Injury Ratings - 20 DAA, CYDPI: 100%
[2]; 280 g ae/ha in-water
  Percent (%) Visual Injury Ratings - 20 DAA, ECHCG: 40%
[2]; 560 g ae/ha in-water
  Percent (%) Visual Injury Ratings - 20 DAA, ECHCG: 70%
[2]; 1120 g ae/ha in-water
  Percent (%) Visual Injury Ratings - 20 DAA, ECHCG: 85%
[3]; 280 g ae/ha in-water
  Percent (%) Visual Injury Ratings - 20 DAA, MOOVA: 95%
[3]; 560 g ae/ha in-water
  Percent (%) Visual Injury Ratings - 20 DAA, MOOVA: 99%
[3]; 1120 g ae/ha in-water
  Percent (%) Visual Injury Ratings - 20 DAA, MOOVA: 100%
[4]; 280 g ae/ha in-water
  Percent (%) Visual Injury Ratings - 20 DAA, SCPJU: 70%
[4]; 560 g ae/ha in-water
  Percent (%) Visual Injury Ratings - 20 DAA, SCPJU: 95%
[4]; 1120 g ae/ha in-water
  Percent (%) Visual Injury Ratings - 20 DAA, SCPJU: 100%
[5]; 35 g ae/ha
  Percent (%) Visual Injury Ratings - 16 DAA, CYPDI: 100%
  Percent (%) Visual Injury Ratings - 22 DAA, CYPDI: 100%
[5]; 70 g ae/ha
  Percent (%) Visual Injury Ratings - 16 DAA, CYPDI: 98%
  Percent (%) Visual Injury Ratings - 22 DAA, CYPDI: 100%
[5]; 140 g ae/ha
  Percent (%) Visual Injury Ratings - 16 DAA, CYPDI: 97%
  Percent (%) Visual Injury Ratings - 22 DAA, CYPDI: 100%
[5]; 280 g ae/ha
  Percent (%) Visual Injury Ratings - 16 DAA, CYPDI: 100%
  Percent (%) Visual Injury Ratings - 22 DAA, CYPDI: 100%
[5]
  pest or weed control at 280 g/ha: 97%
  pest or weed control at 560 g/ha: 99%
  pest or weed control at 1120 g/ha: 100%
[6]; 35 g ae/ha
  Percent (%) Visual Injury Ratings - 16 DAA, MOOVA: 84%
  Percent (%) Visual Injury Ratings - 22 DAA, MOOVA: 92%
[6]; 70 g ae/ha
  Percent (%) Visual Injury Ratings - 16 DAA, MOOVA: 89%
  Percent (%) Visual Injury Ratings - 22 DAA, MOOVA: 89%
[6]; 140 g ae/ha
  Percent (%) Visual Injury Ratings - 16 DAA, MOOVA: 78%
  Percent (%) Visual Injury Ratings - 22 DAA, MOOVA: 82%
[6]; 280 g ae/ha
  Percent (%) Visual Injury Ratings - 16 DAA, MOOVA: 98%
  Percent (%) Visual Injury Ratings - 22 DAA, MOOVA: 100%
[6]
  pest or weed control at 280 g/ha: 100%
  pest or weed control at 560 g/ha: 100%
  pest or weed control at 1120 g/ha: 100%
